SMILES strings stand for the structures. Several values for one entry are separate records, joined by “and”; a condition that tells them apart may be missing. Identical values can stand only once. Inconclusive results and toxic doses are left out.

In PubChem BioAssay AID328 (DTP/NCI, 2004) one finds T/C data, which are given here for 19 molecules.

In the assay the test system is BDF1 mice, P388 leukemia ip, median survival T/C. Put plainly: NCI In Vivo Anticancer Drug Screen. Data for tumor model P388 Leukemia (intraperitoneal) in B6D2F1 (BDF1) mice. Conditions: endpoint: median survival time, higher = longer survival. In outline:
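Mice carrying the transplantable tumour receive compound or vehicle. Survival is followed in each arm, and the treated measure is divided by the vehicle measure.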

[1] abbreviates: dose: 3.12 mg/kg/injection, schedule: Q01DX009 (ip), vehicle: saline.
Setting [2] is: dose: 6.25 mg/kg/injection, schedule: Q01DX009 (ip), vehicle: saline.
[3] abbreviates: dose: 100.0 mg/kg/injection, schedule: Q04DX003 (ip), vehicle: saline with Tween-80.
The mark [4] stands for this setting: dose: 200.0 mg/kg/injection, schedule: Q04DX003 (ip), vehicle: saline with Tween-80.
The mark [5] stands for this setting: dose: 400.0 mg/kg/injection, schedule: Q04DX003 (ip), vehicle: saline with Tween-80.
Where [6] appears, read: dose: 12.5 mg/kg/injection, schedule: Q01DX009 (ip), vehicle: saline.
[7] abbreviates: dose: 50.0 mg/kg/injection, schedule: Q01DX009 (ip), vehicle: saline with Tween-80.
Where [8] appears, read: dose: 100.0 mg/kg/injection, schedule: Q01DX009 (ip), vehicle: saline with Tween-80.
Setting [9] is: dose: 25.0 mg/kg/injection, schedule: Q01DX009 (ip), vehicle: Klucel (hydroxypropylcellulose) (HPC).
The mark [10] stands for this setting: dose: 50.0 mg/kg/injection, schedule: Q01DX009 (ip), vehicle: Klucel (hydroxypropylcellulose) (HPC).
Setting [11] is: dose: 100.0 mg/kg/injection, schedule: Q01DX009 (ip), vehicle: Klucel (hydroxypropylcellulose) (HPC).
[12] abbreviates: dose: 200.0 mg/kg/injection, schedule: Q01DX009 (ip), vehicle: saline with Tween-80.

In the case of `c1cc[n+](CCSCCSCC[n+]2ccccc2)cc1`, the T/C by setting is: (dose: 1.56 mg/kg/injection, schedule: Q01DX009 (ip), vehicle: saline) 120 % of control; (dose: 2.3 mg/kg/injection, schedule: Q04DX003 (ip), vehicle: saline) 122 % of control; (dose: 3.0 mg/kg/injection, schedule: Q04DX003 (ip), vehicle: saline) 104 % of control and 113 % of control; under setting [1], 105 % of control; (dose: 4.6 mg/kg/injection, schedule: Q04DX003 (ip), vehicle: saline) 100 % of control and 109 % of control; under setting [2], 105 % of control. In addition, the T/C (dose: 6.9 mg/kg/injection, schedule: Q04DX003 (ip), vehicle: saline) was 109 % of control; the T/C (dose: 9.2 mg/kg/injection, schedule: Q01DX009 (ip), vehicle: saline) is 88 % of control; the T/C (dose: 9.2 mg/kg/injection, schedule: Q04DX003 (ip), vehicle: saline) was 100 % of control; the T/C (dose: 13.0 mg/kg/injection, schedule: Q04DX003 (ip), vehicle: saline) is 100 % of control.
As to `C=CCOP1(=O)OCC2OC(n3cnc4c(N)ncnc43)C(O)C2O1` (stereo not given), the T/C (dose: 100.0 mg/kg/injection, schedule: Q01DX009 (ip), vehicle: saline) was 88 % of control; the T/C (dose: 200.0 mg/kg/injection, schedule: Q01DX009 (ip), vehicle: saline) is 100 % of control; the T/C (dose: 400.0 mg/kg/injection, schedule: Q01DX009 (ip), vehicle: saline) was 88 % of control.
`O=c1[nH]c(=O)n(C2CC(O)C(CO)O2)cc1Br` (stereo not given): the T/C was 100 % of control (dose: 100.0 mg/kg/injection, schedule: Q04DX003 (ip), vehicle: saline sonified); 100 % of control (dose: 200.0 mg/kg/injection, schedule: Q04DX003 (ip), vehicle: saline sonified); 100 % of control (dose: 400.0 mg/kg/injection, schedule: Q04DX003 (ip), vehicle: saline sonified).
With `CCCCCCc1ccccc1`, the T/C runs as follows: under setting [3], 109 % of control; under setting [4], 109 % of control; under setting [5], 118 % of control.
Take `CC(=O)CC(C)=O.CC(=O)CC(C)=O.Cn1ccnc1.Cn1ccnc1.[Ni]`: the T/C reads like this: (dose: 12.5 mg/kg/injection, schedule: Q04DX002 (ip), vehicle: saline) 103 % of control; (dose: 25.0 mg/kg/injection, schedule: Q04DX002 (ip), vehicle: saline) 107 % of control; (dose: 50.0 mg/kg/injection, schedule: Q04DX002 (ip), vehicle: saline) 119 % of control.
In the case of `COc1cc2cc[n+]3c(C)c4cc5c(cc4cc3c2cc1OC)OCO5` (tested in a mixture with another compound), the T/C runs as follows: (dose: 2.2 mg/kg/injection, schedule: Q01DX009 (ip), vehicle: saline) 158 % of control; (dose: 3.3 mg/kg/injection, schedule: Q01DX009 (ip), vehicle: saline) 163 % of control; (dose: 5.0 mg/kg/injection, schedule: Q01DX009 (ip), vehicle: saline) 174 % of control; (dose: 7.5 mg/kg/injection, schedule: Q01DX009 (ip), vehicle: saline) 186 % of control; under setting [6], 230 % of control; (dose: 25.0 mg/kg/injection, schedule: Q01DX009 (ip), vehicle: saline) 123 % of control. For the same molecule, the T/C (dose: 50.0 mg/kg/injection, schedule: Q01DX009 (ip), vehicle: saline) is 102 % of control.
Regarding `CCC1CC[N-]CC1.CCC1CC[N-]CC1.[Cl][Pt+2]([Cl])([Cl])[Cl]`, the T/C is, setting by setting: under setting [1], 107 % of control; under setting [2], 110 % of control; under setting [6], 110 % of control.
With `CS(=O)(=O)OCCN1CCC2(CC1)SSC1(CCN(CCOS(C)(=O)=O)CC1)S2`, the T/C under setting [1] was 95 % of control and 96 % of control; the T/C under setting [2] was 115 % of control; the T/C (dose: 7.5 mg/kg/injection, schedule: Q04DX003 (ip), vehicle: saline) is 122 % of control; the T/C (dose: 10.0 mg/kg/injection, schedule: Q01DX009 (ip), vehicle: saline) was 154 % of control; the T/C under setting [6] was 109 % of control and 115 % of control; the T/C (dose: 12.5 mg/kg/injection, schedule: Q04DX003 (ip), vehicle: saline) is 122 % of control.
Regarding `NS(=O)(=O)c1ccc(C(=O)NO)cc1`, the T/C was 100 % of control (dose: 100.0 mg/kg/injection, schedule: Q01DX001 (ip), vehicle: saline); 108 % of control (dose: 200.0 mg/kg/injection, schedule: Q01DX001 (ip), vehicle: saline); 108 % of control (dose: 400.0 mg/kg/injection, schedule: Q01DX001 (ip), vehicle: saline).
Consider `Cc1c2oc3c(C)ccc(C(=O)NCCCc4ccccc4)c3nc-2c(C(=O)NCCCc2ccccc2)c(N)c1=O`, for which the T/C is 100 % of control (dose: 100.0 mg/kg/injection, schedule: Q04DX002 (ip), vehicle: DMSO) and 90 % of control (dose: 200.0 mg/kg/injection, schedule: Q04DX002 (ip), vehicle: DMSO).
In the case of `O=C(c1ccccc1)C(c1ccccc1)C(O)(C(F)(F)F)C(F)(F)F` (stereo not given), the T/C reads like this: (dose: 100.0 mg/kg/injection, schedule: Q01DX001 (ip), vehicle: saline with Tween-80) 100 % of control; (dose: 200.0 mg/kg/injection, schedule: Q01DX001 (ip), vehicle: saline with Tween-80) 95 % of control.
For `CCCCCCCCCCC(C)c1ccc(S(=O)(=O)O)cc1` (stereo not given), the T/C (dose: 12.5 mg/kg/injection, schedule: Q01DX009 (ip), vehicle: saline with Tween-80) was 103 % of control; the T/C (dose: 25.0 mg/kg/injection, schedule: Q01DX009 (ip), vehicle: saline with Tween-80) was 110 % of control; the T/C (dose: 33.0 mg/kg/injection, schedule: Q01DX009 (ip), vehicle: saline with Tween-80) was 120 % of control; the T/C under setting [7] was 115 % of control and 116 % of control and 118 % of control; the T/C (dose: 75.0 mg/kg/injection, schedule: Q01DX009 (ip), vehicle: saline with Tween-80) is 110 % of control; the T/C under setting [8] is 119 % of control.
On to `COc1ccc(OC)c(/C=C/[N+](=O)[O-])c1`, for which the T/C (dose: 12.5 mg/kg/injection, schedule: Q01DX009 (ip), vehicle: Klucel (hydroxypropylcellulose) (HPC)) was 108 % of control; the T/C under setting [9] was 113 % of control and 120 % of control; the T/C under setting [10] was 113 % of control; the T/C under setting [11] is 116 % of control.
Consider `Cc1cc(C)c(C(=O)C=O)c(C)c1`, for which the T/C under setting [9] is 99 % of control, the T/C under setting [10] is 104 % of control and the T/C under setting [11] was 110 % of control.
In the case of `COc1cc2c(cc1OC)[C@H]1CNC[C@H]1[C@@H](c1ccccc1)C2`, the T/C (dose: 95.0 mg/kg/injection, schedule: Q01DX001 (ip), vehicle: Klucel (hydroxypropylcellulose) (HPC)) was 100 % of control; the T/C (dose: 100.0 mg/kg/injection, schedule: Q01DX001 (ip), vehicle: Klucel (hydroxypropylcellulose) (HPC)) was 100 % of control and 110 % of control; the T/C (dose: 135.0 mg/kg/injection, schedule: Q01DX001 (ip), vehicle: Klucel (hydroxypropylcellulose) (HPC)) was 104 % of control; the T/C (dose: 200.0 mg/kg/injection, schedule: Q01DX001 (ip), vehicle: Klucel (hydroxypropylcellulose) (HPC)) is 95 % of control and 104 % of control; the T/C (dose: 300.0 mg/kg/injection, schedule: Q01DX001 (ip), vehicle: Klucel (hydroxypropylcellulose) (HPC)) was 90 % of control.
`CSC1=NN(c2ccccc2)CN(c2ccccc2)N1C`: the T/C under setting [7] is 95 % of control, the T/C under setting [8] is 88 % of control and the T/C under setting [12] was 108 % of control.
For the molecule `CCCC#CCOCC1CO1` (stereo not given), the T/C was 116 % of control under setting [8]; 100 % of control under setting [3]; 120 % of control under setting [12]; 100 % of control under setting [4]; 95 % of control under setting [5].
With `Cc1ccc(S(=O)(=O)Oc2cc(C)ccc2C)cc1`, the T/C is 105 % of control (dose: 25.0 mg/kg/injection, schedule: Q04DX003 (ip), vehicle: Klucel (hydroxypropylcellulose) (HPC)); 95 % of control (dose: 50.0 mg/kg/injection, schedule: Q04DX003 (ip), vehicle: Klucel (hydroxypropylcellulose) (HPC)); 114 % of control under setting [8]; 105 % of control (dose: 100.0 mg/kg/injection, schedule: Q04DX003 (ip), vehicle: Klucel (hydroxypropylcellulose) (HPC)); 109 % of control under setting [12]; 114 % of control (dose: 400.0 mg/kg/injection, schedule: Q01DX009 (ip), vehicle: saline with Tween-80).
Regarding `CC(=O)OCC1OC(N=[N+]=[N-])C(OC(C)=O)C(OC(C)=O)C1OC(C)=O` (stereo not given), the T/C is, setting by setting: under setting [7], 93 % of control; under setting [8], 108 % of control; under setting [12], 99 % of control.
